In assay [1] the test system is CyT49 cells. Kind of assay: Suspension aggregate culture, cell counts and aggregate diameters. In kind it is cell-based, human. The conditions noted are these: for serial passages maintained in suspension with undifferentiated morphology: suspension culture, 50 μM. Here is the method: FIG. 10. Effects of NE and ACh in suspension culture of hES cell. (A) 5×10^6 CyT49 cells were seeded in 5 ml StemPro® hESC SFM containing heregulin, LR3-IGF1, Activin and the indicated neurotransmitters at 50 μM in low-attachment 6-well trays and placed at 100 rpm. Undifferentiated suspension aggregates were imaged on day 4. (B) 24 hours after seeding, two wells from each condition were harvested and counted to determine the number of viable cells. (C) Cell counts of each condition when the cultures were split on day 4. (D) The images in (A) were used to determine aggregate diameters using the ImagePro software measurement tool. Average diameters and standard deviations from 50-100 aggregates from each condition are shown. (E) Passage 1 cell counting data. 5×10^6 CyT49 hES cells from p0 cells in (A) were seeded into the same conditions. The aggregates in the condition containing Y27632 were larger and had to be passaged 3 days after seeding, before the centers of the largest aggregates became necrotic. Conversely, the other conditions could be cultured for 6 days before passaging, resulting in higher cell counts.
FIG. 11. Suspension hES cell cultured with NE, […] remain undifferentiated. CyT49 cells were grown as suspension aggregates in the presence of NE, […] for 16 passages without differentiating morphologically. After p10, some cells were re-plated to adherent culture and examined by karyotyping and immunofluorescent staining for OCT4 and Tra-1-61. All cultures remained undifferentiated and expressed these pluripotency markers uniformly. (SP) StemPro® SFM HIA, NE (+NE at 50 μM), ACh (+ACh at 50 μM), NE/ACh (+NE/ACh at 50 μM). Karyotype data is shown to the right. […] Cultures containing ACh were aneuploid.
Small molecule ligands that support survival or self-renewal at low cell densities could also be expected to have beneficial effects in other culture formats. Applicants have previously developed a suspension culture system for hES cells that enables serial propagation of cells and effective expansion of cultures. Human ES cells, at least BG02 and CyT49 cells, have been maintained in suspension for greater than 10 passages without differentiation. The basis of the technique is to dissociate cultures to single cells with reagents that preserve high viability, such as Accutase™, TrypLE or cell dispersal buffer, then aggregate defined concentrations of cells in defined medium in rotational culture. These methods are described in more detail in International Application PCT/US2008/082356, entitled STEM CELL AGGREGATE SUSPENSION COMPOSITIONS AND METHODS OF DIFFERENTIATION THEREOF, filed Nov. 4, 2008; and International Application PCT/US2007/062755, entitled COMPOSITIONS AND METHODS FOR CULTURING DI[…], filed Feb. 23, 2007, which are herein incorporated by reference in their entireties. Self-aggregation of hES cells occurs in the absence of added extracellular matrix (ECM) or ECM-like proteins and is presumed to be driven in part by homotypic interaction of E-cadherin. The aggregates that are formed expand over 3-4 days and are kept apart from each other by the shear forces generated by rotational culture. Cells are blocked from differentiating by the self-renewal signaling provided by the defined medium and retain their pluripotent characteristics: marker expression, normal karyotype, and differentiation potential in vitro and in teratomas. […]

The test system of assay [2] is hES cells. Put plainly: Low-density real-time cell index monitoring (RT-CES impedance reader). The class given is cell-based, human. Particulars: for time after plating at which cell index rises above background / expansion detectable: 50 μM each factor; for time after plating at which cell index rises above background / expansion detectable / lowest concentration that elicited an effect: StemPro hESC SFM; for lowest concentration that elicited an effect: titration. As to the method:
FIG. 4. Titration of NE and ACh using the RT-CES impedance reader. 1000 hES cells/well were plated in StemPro® hESC SFM containing the indicated concentrations of small molecules (in μM). In such an assay, the timing of when the cell index rises is associated with the proportion of cells that survive and expand at low density.
FIG. 5. Combined effects of small molecules compound combinations in low cell density assays. (A) 1000 hES cells/well were plated in StemPro® hESC SFM containing small molecules at 50 μM (NE, ACh, Adenosine, GABA) or 10 μM (Y27632). The assay was carried out over 5 days using the RT-CES system.
FIG. 6. […] 1000 hES cells/well were plated in StemPro® hESC SFM containing Heregulin, IGF1 and Activin (HIA) and the indicated small molecules. […] Compounds were tested at 10 μM. The DMSO trace is an average of 8 wells. […] Compounds were tested at the indicated concentrations.
FIG. 7. […] 1000 hES cells/well were plated in StemPro® hESC SFM containing the indicated combinations of growth factors and small molecules. Heregulin (H), LR3-IGF1 (I), Activin (A).
FIG. 9. Low-density RT-CES assays of combinations of growth factors and neurotransmitters. 1000 hES cells/well were plated in StemPro® hESC SFM containing the indicated combinations of growth factors and small molecules. Heregulin (H), LR3-IGF1 (I), Activin (A). Small molecules were tested at 50 μM.
Furthermore, pluripotent cells can also be grown in 96-well culture devices that provide real-time measurements of impedance, which can be used to measure cell proliferation and viability using the RT-CES™ methods from ACEA Biosciences, Inc. (www (dot) aceabio (dot) com). Such an approach would enable a label-free identification and quantification of subtle or immediate effects on differentiable cells, as well as measurements of proliferation, apoptosis and changes to morphology, in real time.
To examine more closely the potency of individual neurotransmitters and determine if synergies exist between different factors, low-density assays were performed in real time using an impedance reader. The ACEA biosciences RT-CES system uses 96-well trays that contain embedded microsensors to monitor changes in electrical impedance, which is translated into a measure of cell index. Any overt alteration within a cell culture can be detected, including but not limited to cell proliferation, migration, cell spreading, apoptosis, differentiation and the like. […] Once an undifferentiated culture becomes confluent the cell index remains high, but tends to go down and up (scallop) between daily feedings. Conversely, differentiation is typically indicated by the appearance of distinctive patterns, such as peaks and troughs in the cell index, likely indicative of an epithelial-to-mesenchymal transition, flattening, cell migration, apoptosis or similar differentiation and growth related changes.
Human ES cells were plated at low density, 1000 cells/well, in RT-CES trays and cultured for 10 days (FIG. 4). Cells were plated directly in StemPro® hESC SFM containing carrier control (DMSO), NE, or ACh.

Each structure is given as a SMILES string.

As for `NCC(O)c1ccc(O)c(O)c1` (racemic) [NE, (±)-Norepinephrine (+)-bitartrate], the “serial passages maintained in suspension with undifferentiated morphology” value in assay [1] was 12 serial passages. For the same molecule, in assay [1] (suspension, StemPro hESC SFM HIA, neurotransmitters 50 μM), the “aggregate size on day 4” value is reported as “smaller aggregates”. In addition, the “effect on low-density survival/proliferation” value in assay [2] (1 μM, 1000 cells/well, 10 days) is reported as “did not appear to affect low-density survival/proliferation”. In addition, the “survival and expansion at low density, single factors and two-factor combinations” value in assay [2] (50 μM (NE, ACh, Adenosine, GABA) or 10 μM (Y27632), 1000 cells/well, 5 days) is “effective survival and expansion”. In assay [2] (1000 cells/well), the “time after plating at which cell index rises above background / expansion detectable” value is listed as “about 3 days” and the “lowest concentration that elicited an effect” value worked out at 5 µM. Moreover, the “time to apparent confluence” value in assay [2] (70 μM, 1000 cells/well) was roughly 9 days. Also, the “time to apparent confluence” value in assay [2] (100 μM, 1000 cells/well) is roughly 10 days. Also, the “time at which increases in cell index were first detected” value in assay [2] (5, 10 and 50 μM, 1000 cells/well) is roughly 6.5 days. In addition, in assay [2] (HAI or HI background, 1000 cells/well), the “survival/expansion on addition of neurotransmitter” value was “substantially improved survival/expansion”. Also, the survival/expansion entry in assay [2] (StemPro hESC SFM HI background) is recorded as “maximal survival/expansion”. In addition, in assay [2] (small molecules 50 μM, 1000 cells/well, growth factor combinations), the “rises in impedance / survival and expansion with neurotransmitters” value was “detected much earlier”.

On to `CC(=O)OCC[N+](C)(C)C` [ACh, acetylcholine], for which the “serial passages maintained in suspension with undifferentiated morphology” value in assay [1] turned out to be 12 serial passages. Further, in assay [2] (1000 cells/well), the “time after plating at which cell index rises above background / expansion detectable” value was “about 3 days” and the “lowest concentration that elicited an effect” value was determined as 5 µM.

Source of the values: patent publication US8685726B2, “Small molecules supporting pluripotent cell growth and methods thereof” (Viacyte, Inc., priority 2009, dated 2014).
